Laboratory results published in ChEMBL document CHEMBL1201862, “PubChem BioAssay data set” (2004).
The source made the active and inactive calls.

Key:
INS1 = assay: INS-1E survival protection against cytokine death – cell-based, luminescence, retest, dose response (AID 449756); type: functional; conditions: Rattus norvegicus;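 note: cell death triggered by IL-1 beta plus TNF-alpha plus IFN-gamma mixture; protective hits raise ATP signal compared with cytokine alone wells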
[1] = Luminescence Cell-Based Dose Retest to Confirm Inhibitors of Cancer Stem Cells. [Related pubchem assays (depositor defined):AID2717, AID2721]; type: functional; conditions: Homo sapiens
[2] = target: T1, Apoptotic protease-activating factor 1 (Homo sapiens, UniProt O14727); type: functional
T1 sequence (O14727 whole entry): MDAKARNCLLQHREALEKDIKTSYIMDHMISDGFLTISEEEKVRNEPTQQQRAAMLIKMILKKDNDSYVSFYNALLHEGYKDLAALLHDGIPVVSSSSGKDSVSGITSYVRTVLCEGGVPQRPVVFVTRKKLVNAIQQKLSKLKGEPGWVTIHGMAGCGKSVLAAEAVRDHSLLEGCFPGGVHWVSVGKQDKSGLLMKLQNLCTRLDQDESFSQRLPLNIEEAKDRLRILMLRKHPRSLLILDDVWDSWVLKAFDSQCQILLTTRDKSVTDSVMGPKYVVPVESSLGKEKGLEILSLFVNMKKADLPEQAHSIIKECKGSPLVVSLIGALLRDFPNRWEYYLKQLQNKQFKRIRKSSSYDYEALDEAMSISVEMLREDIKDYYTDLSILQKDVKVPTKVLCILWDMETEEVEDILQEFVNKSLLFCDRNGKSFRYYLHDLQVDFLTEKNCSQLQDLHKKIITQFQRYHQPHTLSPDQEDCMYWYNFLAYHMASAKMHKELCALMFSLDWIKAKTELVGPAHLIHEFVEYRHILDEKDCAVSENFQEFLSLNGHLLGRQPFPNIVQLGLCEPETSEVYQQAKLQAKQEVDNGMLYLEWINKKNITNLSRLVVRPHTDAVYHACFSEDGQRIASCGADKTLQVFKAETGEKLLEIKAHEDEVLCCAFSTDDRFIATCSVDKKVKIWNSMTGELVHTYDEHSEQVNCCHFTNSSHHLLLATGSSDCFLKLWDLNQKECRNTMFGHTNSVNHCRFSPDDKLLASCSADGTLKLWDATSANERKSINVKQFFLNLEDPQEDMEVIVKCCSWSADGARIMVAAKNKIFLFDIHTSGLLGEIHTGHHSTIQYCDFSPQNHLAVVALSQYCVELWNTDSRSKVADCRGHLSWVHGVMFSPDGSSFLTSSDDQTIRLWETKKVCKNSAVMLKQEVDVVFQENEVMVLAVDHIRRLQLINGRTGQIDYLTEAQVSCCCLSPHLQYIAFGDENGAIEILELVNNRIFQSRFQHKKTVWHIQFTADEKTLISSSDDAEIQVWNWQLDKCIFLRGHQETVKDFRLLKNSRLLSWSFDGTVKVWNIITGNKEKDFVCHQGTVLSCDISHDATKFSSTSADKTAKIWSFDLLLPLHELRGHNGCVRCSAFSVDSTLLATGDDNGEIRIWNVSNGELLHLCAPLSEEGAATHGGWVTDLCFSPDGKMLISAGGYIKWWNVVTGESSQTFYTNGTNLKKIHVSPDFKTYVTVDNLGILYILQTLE

Nonstructural protein 1 = Nonstructural protein 1 (Influenza A virus, UniProt Q194T2); type: functional, Influenza A virus (A/California/07/2009(H1N1))
Streptococcus = assay: GAS UMAA2166 growth inhibition – luminescence, BacTiterGlo, counter-screen for streptokinase expression inhibitor project, dose response (AID 1915); type: functional, organism-based;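 note: potency for reduction of bacterial viability or growth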
[3] = system: Streptococcus sp. 'group A'; assay: Streptococcus pyogenes SK(-)GAS viability under kanamycin – luminescence, BacTiterGlo, confirmation, counter-screen for streptokinase expression inhibitor project, dose response (AID 1900); type: functional, organism-based
[4] = target: T2, Low molecular weight phosphotyrosine protein phosphatase (Homo sapiens, UniProt P24666); type: functional; conditions: read-out: IC50_Mean;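 note: Dose-response confirmation assay measuring inhibition of LMPTP enzyme activity by fluorescence intensity read-out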
T2 sequence (P24666 whole entry): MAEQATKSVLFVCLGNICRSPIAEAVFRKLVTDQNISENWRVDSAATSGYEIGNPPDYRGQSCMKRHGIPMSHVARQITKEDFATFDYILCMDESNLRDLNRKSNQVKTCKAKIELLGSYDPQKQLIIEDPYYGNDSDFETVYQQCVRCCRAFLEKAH

[5] = target: T3, Endoribonuclease toxin MazF (Escherichia coli K-12, UniProt P0AE70); assay: substrate-only fluorescence increase artefacts – biochemical, single-stranded RNase substrate, counter-screen for MazEF activator project, dose response (AID 588502); type: functional
T3 sequence (P0AE70 whole entry): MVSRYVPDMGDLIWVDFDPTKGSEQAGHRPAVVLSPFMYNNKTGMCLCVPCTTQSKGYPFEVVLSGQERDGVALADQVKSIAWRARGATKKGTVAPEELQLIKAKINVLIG

[6] = target: T3, Endoribonuclease toxin MazF; assay: activation of MazEF endoribonuclease cleavage – biochemical, fluorescence, single-stranded RNA substrate, uHTS hits, dose response (AID 588481); type: functional
[7] = target: Glucose-6-phosphate 1-dehydrogenase (Homo sapiens, UniProt P11413); assay: inhibition of Homo sapiens G6PD, dose series – biochemical, fluorescence, selectivity assay for P. falciparum G6PD inhibitor project, dose response (AID 504792); type: functional
[8] = off-target signal loss in HeLa-CEM21 co-culture – HeLa F-luc CTL cells, cherry-picked, counter-screen for HIV-1 Env fusion inhibitor project, dose response (AID 652040); type: functional, cell-based;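 note: potency for signal decrease marking cytotoxic or nonspecific inhibition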
[9] = blockers of HIV-1 ZM109 envelope-driven cell-cell fusion – HeLa effector, CEM target cells, luciferase, cherry-pick, dose response (AID 652058); type: functional, cell-based;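 note: luciferase signal from HIV-1 Env mediated cell-cell fusion of effector and target cells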
[10] = viability loss in CEM21 cells – cell-based, CellTiter-Glo luminescence, cherry-picked, cytotoxicity control for viral fusion inhibitor project, dose response (AID 652042); type: functional;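 note: potency for signal decrease meaning cytotoxicity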
[11] = blockers of HIV-1 envelope-mediated cell-cell fusion – cherry-pick, dose response (AID 652057); type: functional, cell-based
[12] = HIV-1 AD8 envelope cell-cell fusion blockers – cherry-pick, dose response (AID 652062); type: functional, cell-based;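 note: luciferase signal from cell-cell fusion driven by HIV-1 clade B AD8 Env; potency is for inhibitors of fusion seen as a drop in luminescence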
[13] = target: T4, Ubiquitin-conjugating enzyme E2 N (Homo sapiens, UniProt P61088); type: functional;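 note: Dose-response confirmation in a TR-FRET assay detecting UBC13-driven polyubiquitin chain formation, inhibition measured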
T4 sequence (P61088 whole entry): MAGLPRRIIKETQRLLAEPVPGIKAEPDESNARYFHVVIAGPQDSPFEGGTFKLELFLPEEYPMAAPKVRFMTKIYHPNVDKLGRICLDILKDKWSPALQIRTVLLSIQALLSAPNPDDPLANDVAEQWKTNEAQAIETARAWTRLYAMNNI

[14] = target: Dual specificity tyrosine-phosphorylation-regulated kinase 1A (Rattus norvegicus, UniProt Q63470); type: biochemical, Homo sapiens
[15] = decrease of insulin promoter-GFP reporter – imaging, high-content screening, mouse beta cells (AID 1628); type: functional; conditions: MIN6
BJ [16] = assay: BJ-TERT-LT-ST fibroblast viability loss – cell-based, RAS-independent, luminescence, dose response (AID 1935); type: functional; conditions: Homo sapiens;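 note: BJ fibroblasts immortalized with TERT plus LT and ST oncogenes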
[17] = target: T5, Microphthalmia-associated transcription factor (Homo sapiens, UniProt O75030); assay: reducers of TRPM1 reporter luminescence, concentration series – cell-based, SK-MEL-5, cherry-picked, set 3, MITF inhibitor project, dose response (AID 493073); type: functional;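 note: SK-MEL-5 melanoma cells with luciferase driven by the MITF target TRPM1 promoter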
T5 sequence (O75030 whole entry): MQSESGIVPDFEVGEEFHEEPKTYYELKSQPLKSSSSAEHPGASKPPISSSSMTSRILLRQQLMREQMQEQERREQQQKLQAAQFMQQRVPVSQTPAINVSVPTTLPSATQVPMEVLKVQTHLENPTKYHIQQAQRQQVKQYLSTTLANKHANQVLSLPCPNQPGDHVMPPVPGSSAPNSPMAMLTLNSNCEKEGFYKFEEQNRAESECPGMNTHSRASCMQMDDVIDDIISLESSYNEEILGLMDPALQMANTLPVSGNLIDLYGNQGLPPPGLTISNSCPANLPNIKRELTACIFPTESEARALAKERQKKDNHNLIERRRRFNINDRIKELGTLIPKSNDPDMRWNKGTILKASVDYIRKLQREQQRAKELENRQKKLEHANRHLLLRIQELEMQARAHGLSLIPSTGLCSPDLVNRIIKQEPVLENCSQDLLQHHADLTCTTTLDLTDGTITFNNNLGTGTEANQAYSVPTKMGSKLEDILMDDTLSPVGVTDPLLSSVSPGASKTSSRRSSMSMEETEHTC

[18] = DRD fibroblast viability loss – cell-based, non-viral oncogenic, luminescence, dose response (AID 1934); type: functional; conditions: Homo sapiens
[19] = MIN6 cell viability loss – mouse insulinoma, cytotoxicity control, dose response (AID 2122); type: functional;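 note: confirmatory high-throughput counterscreen run to flag cytotoxic compounds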
BJ [20] = assay: cells; type: functional, cell-based; conditions: Homo sapiens
BJ [21] = assay: BJ-TERT fibroblast viability loss – cell-based, RAS-independent, luminescence, dose response (AID 1933); type: functional; conditions: Homo sapiens
[22] = target: T6, Zinc finger protein mex-5 (Caenorhabditis elegans, UniProt Q9XUB2); assay: potency of MEX-5 RNA-binding blockers – biochemical, C. elegans, fluorescence polarization, dose response (AID 1960)
T6 sequence (Q9XUB2 whole entry): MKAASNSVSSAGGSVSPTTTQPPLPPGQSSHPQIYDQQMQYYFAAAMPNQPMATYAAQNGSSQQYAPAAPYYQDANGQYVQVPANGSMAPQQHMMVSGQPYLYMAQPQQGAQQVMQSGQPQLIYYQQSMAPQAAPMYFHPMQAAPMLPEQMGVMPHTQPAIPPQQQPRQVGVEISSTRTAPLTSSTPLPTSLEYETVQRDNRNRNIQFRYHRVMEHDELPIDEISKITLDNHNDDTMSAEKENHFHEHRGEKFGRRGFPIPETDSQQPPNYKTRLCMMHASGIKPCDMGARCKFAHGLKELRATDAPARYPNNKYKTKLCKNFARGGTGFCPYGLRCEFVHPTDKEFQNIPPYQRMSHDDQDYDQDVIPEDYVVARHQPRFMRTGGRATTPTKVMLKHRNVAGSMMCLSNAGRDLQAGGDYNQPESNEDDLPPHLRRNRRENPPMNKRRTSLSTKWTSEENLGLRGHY

[23] = target: Induced myeloid leukemia cell differentiation protein Mcl-1 (Homo sapiens, UniProt Q07820); type: functional
[24] = target: T7, RNA-binding protein pos-1 (Caenorhabditis elegans, UniProt G5EF15); assay: disruptors of C. elegans POS-1 RNA interaction – biochemical, fluorescence polarization, dose response (AID 1964);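 note: purified POS-1 fused to maltose binding protein made in E. coli; potency of compounds blocking POS-1 binding to fluorescent RNA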
T7 sequence (G5EF15 whole entry): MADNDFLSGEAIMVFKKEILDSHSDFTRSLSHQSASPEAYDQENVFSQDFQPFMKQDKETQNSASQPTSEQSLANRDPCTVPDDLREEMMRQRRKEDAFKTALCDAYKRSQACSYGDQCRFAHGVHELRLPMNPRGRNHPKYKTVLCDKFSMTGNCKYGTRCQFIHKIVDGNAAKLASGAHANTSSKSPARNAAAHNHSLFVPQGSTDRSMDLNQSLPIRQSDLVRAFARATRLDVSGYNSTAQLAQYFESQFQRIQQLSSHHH

Genome polyprotein = Genome polyprotein (dengue virus type 2, UniProt P29990); assay: flavivirus cap methylation enzyme inhibition – biochemical, confirmation dose response, primary screen (AID 588689); type: functional
Sequence of Genome polyprotein (P29990 2492-3391 limits assumed): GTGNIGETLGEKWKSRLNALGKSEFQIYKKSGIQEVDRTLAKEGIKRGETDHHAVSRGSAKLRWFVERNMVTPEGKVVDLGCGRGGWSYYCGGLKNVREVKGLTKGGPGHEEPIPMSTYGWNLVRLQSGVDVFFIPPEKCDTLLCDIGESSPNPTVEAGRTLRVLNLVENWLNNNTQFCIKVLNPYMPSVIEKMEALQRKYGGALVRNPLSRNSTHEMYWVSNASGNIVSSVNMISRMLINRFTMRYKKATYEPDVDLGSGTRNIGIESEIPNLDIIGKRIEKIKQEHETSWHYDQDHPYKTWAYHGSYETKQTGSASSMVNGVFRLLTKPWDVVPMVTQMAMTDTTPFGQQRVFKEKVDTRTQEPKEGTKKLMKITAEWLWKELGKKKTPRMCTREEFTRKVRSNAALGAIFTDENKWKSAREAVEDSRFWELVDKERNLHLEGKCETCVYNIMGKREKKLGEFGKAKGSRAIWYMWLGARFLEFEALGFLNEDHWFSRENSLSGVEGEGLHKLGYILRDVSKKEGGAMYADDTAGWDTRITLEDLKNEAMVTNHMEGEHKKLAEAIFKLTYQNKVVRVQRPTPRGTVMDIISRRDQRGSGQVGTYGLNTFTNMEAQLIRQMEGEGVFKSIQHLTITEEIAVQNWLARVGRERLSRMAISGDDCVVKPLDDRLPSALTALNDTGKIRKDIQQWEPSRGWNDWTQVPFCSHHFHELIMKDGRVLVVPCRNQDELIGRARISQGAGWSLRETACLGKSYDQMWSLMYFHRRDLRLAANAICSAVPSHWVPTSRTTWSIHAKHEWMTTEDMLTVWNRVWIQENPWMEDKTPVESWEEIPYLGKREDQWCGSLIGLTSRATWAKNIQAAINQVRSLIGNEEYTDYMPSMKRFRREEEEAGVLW

Sequence of Glucose-6-phosphate 1-dehydrogenase (P11413 whole entry, the tested form may be a part): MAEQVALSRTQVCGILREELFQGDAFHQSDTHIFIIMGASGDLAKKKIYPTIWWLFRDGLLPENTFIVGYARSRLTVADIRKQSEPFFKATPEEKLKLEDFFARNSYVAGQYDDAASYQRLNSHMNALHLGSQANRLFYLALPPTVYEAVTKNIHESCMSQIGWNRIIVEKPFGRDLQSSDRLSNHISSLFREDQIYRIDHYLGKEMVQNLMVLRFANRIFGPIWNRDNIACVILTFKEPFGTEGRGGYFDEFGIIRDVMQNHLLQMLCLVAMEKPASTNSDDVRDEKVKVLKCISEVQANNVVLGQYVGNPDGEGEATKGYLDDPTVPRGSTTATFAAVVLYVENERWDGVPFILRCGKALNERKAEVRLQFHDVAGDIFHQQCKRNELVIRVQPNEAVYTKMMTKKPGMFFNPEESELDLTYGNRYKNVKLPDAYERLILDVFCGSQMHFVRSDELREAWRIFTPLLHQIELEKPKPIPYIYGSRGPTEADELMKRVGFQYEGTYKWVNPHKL
Sequence of Nonstructural protein 1 (Q194T2 whole entry): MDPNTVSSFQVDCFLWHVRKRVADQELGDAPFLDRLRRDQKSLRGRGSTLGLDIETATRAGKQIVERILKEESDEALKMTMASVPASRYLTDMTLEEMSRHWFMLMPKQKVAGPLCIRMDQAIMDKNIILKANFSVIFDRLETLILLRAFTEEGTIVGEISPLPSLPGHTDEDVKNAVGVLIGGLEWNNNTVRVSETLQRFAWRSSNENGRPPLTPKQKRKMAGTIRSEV
Sequence of Induced myeloid leukemia cell differentiation protein Mcl-1 (Q07820 whole entry, the tested form may be a part): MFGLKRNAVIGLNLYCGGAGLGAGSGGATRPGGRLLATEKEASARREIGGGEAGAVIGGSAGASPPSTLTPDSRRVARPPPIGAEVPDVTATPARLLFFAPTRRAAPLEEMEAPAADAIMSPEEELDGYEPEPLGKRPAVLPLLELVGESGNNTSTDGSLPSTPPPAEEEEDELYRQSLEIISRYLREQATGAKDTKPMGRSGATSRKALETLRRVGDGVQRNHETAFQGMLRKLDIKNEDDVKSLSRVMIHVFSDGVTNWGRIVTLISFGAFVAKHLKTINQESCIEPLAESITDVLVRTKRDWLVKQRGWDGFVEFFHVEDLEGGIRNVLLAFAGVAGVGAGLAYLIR

CC(C)n1cnc2c(NCc3ccccc3)cc(N[C@H](C)CO)cc21
AC50 (INS1): 1.52 µM (active)
AC50 [1]: 6.67 µM (active)
IC50 [2]: 1.22 µM (active)
IC50 (Nonstructural protein 1): 61.9 µM (active)

CCn1cc(C(=O)O)c(=O)c2cc(F)c(N3CCN(S(=O)(=O)c4ccc5c(c4)OCCO5)CC3)cc21
EC50 (Streptococcus): 5.81 µM (active)
EC50 [3]: 2.84 µM (active)
IC50 [4]: 5.48 µM (active)

O=C(CSc1nnc(-c2ccco2)o1)c1ccc[nH]1
IC50 [4]: 38.1 µM (inactive)

COC(=O)C1=C(C)N(C)C(C)=C(C(=O)OC)C1c1ccccn1
EC50 [5]: 56.4 µM (inactive)
EC50 [6]: > 99 µM (inactive)

CCOC(=O)c1cnn(-c2c(Cc3ccccc3)c(C)nc3c(-c4ccccc4)c(C)nn23)c1N
IC50 [2]: 4 µM (active)

CCC(C)N(CCNC(=O)c1ccc2c(c1)NC(=O)c1ccccc1S2)C1CCCCC1 (stereo not given)
IC50 [7]: > 80 µM (inactive)
AC50 [8]: 1.09 µM (active)
AC50 [9]: 0.923 µM (active)
AC50 [10]: 45.1 µM (active)
AC50 [11]: 0.758 µM (active)
AC50 [12]: 3.82 µM (active)
IC50 [13]: > 20 µM (inactive)

O=C1/C(=C/c2ccc3c(c2)OCO3)Oc2cc(OCC(=O)N3CCC[C@H]3C(=O)O)ccc21
AC50 [14]: 4.59 µM (active)

O=C1N=C(N2CCc3ccccc3C2)S/C1=C\c1ccc(O)cc1
AC50 [14]: 0.737 µM (active)

Cc1cc(-n2c(C)cc(C(=O)CCl)c2C)no1
IC50 [15]: 3.25 µM (active)
EC50 (BJ [16]): 1.91 µM (inconclusive)
AC50 [17]: 5.5 µM (active)
EC50 [18]: 10.9 µM (inconclusive)
IC50 [19]: 1.66 µM (active)
EC50 (BJ [20]): 2.76 µM (active)
EC50 (BJ [21]): 4.75 µM (inconclusive)

Cc1ccc(S(=O)(=O)SCCCSS(=O)(=O)c2ccc(C)cc2)cc1
IC50 [7]: 26.7 µM (inactive)

O=C1C(=Cc2cccn2-c2ccccc2)C(=O)c2ccccc21
EC50 [22]: 175 µM (active)
EC50 [5]: 60.7 µM (inactive)
EC50 [6]: > 99 µM (inactive)
IC50 [23]: 4.55 µM (active)
EC50 [24]: 68.6 µM (active)

COC(=O)CCC(=O)OC1(C)C(=O)C2=CN(c3ccccc3)C(c3ccc(OC)cc3)=CC2=C(Br)C1=O (stereo not given)
IC50 [7]: 42.1 µM (inactive)
IC50 (Genome polyprotein): > 100 µM (active)
